Experimental data reported in patent publication US7109043B2, “Fluorescent probe for magnesium ion determination” (Japan Science and Technology Corporation, priority 2000, dated 2006).
Entries after “also recorded” stand apart in the source; their conditions may differ. Read-outs that look alike come from different tables or passages of the source.

How the values were obtained:
[1] = Binding constant to magnesium ion by fluorescence titration (Benesi-Hildebrand plot); conditions: for KMg/KCa (selectivity to magnesium ion): ratio of binding constant to magnesium ion to binding constant to calcium ion; for KMg (binding constant to Mg^2+): probe 10 μM in HEPES 10.0 mM, KCl 120.0 mM, NaCl 20.0 mM, EGTA 2.0 mM, pH 7.20, excitation 448 nm, fluorescence 505 nm
Protocol: (§1) Selectivities to magnesium ion (i.e., the ratio of binding constant to magnesium ion to the binding constant to calcium ion) of KMG-20 synthesized in Example 1 and KMG-27 synthesized in Example 4 were measured. More particularly, this measurement was carried out as follows:
(§2) The fluorescent indicator was dissolved in a solvent (HEPES 10.0 mM, KCl 120.0 mM, NaCl 20.0 mM, EGTA 2.0 mM, pH 7.20) to a concentration of 10 μM. To this solution, a metal salt solution (MgCl2, CaCl2) in the above-described solvent was added to a concentration of 0 to 500 mM, and fluorescence spectrum was measured.
(§3) The conditions of the fluorophotometer (Hitachi F4500) were as follows: excitation wavelength: 448 nm, slit width: excitation side: 2.5 nm, fluorescence side 2.5 nm, photomultiplier voltage: 700V, scanning rate: 240 nm/min.
The fluorescence intensities at the maximum fluorescence wavelength (505 nm) when the concentration of the metal ion was changed were measured, and the binding constants to Mg^2+ and Ca^2+ were calculated by using Benesi-Hildebrand plot method (J. Am. Chem. Soc. 71, 2703 (1949)).
For comparison, the binding constants of known magnesium probes commercially available from Molecular Probes, that is, mag-fura-2 (Proc. Natl. Acad. Sci. USA, 86, 2981 (1989)), mag-indo-1(J. Physiol, 475, 319 (1994)), mag-fura-5 (J. Physiol, 475, 319 (1994)) and Magnesium Green (J. Biol. Chem. 270, 18975 (1995)) are also shown in Table 1.

[2] = known commercial magnesium probes, literature values for comparison; cited from earlier work
[3] = known commercial magnesium probes, literature values for comparison; cited from earlier work; remark: listed apart in the source
[4] = tested on: bovine vascular endothelial cells; experiment: Measurement of magnesium ions in cells using fluorescent probe (No. 1), fluorescence microscopy; format: cell-based
Protocol: Magnesium ions in cells were measured using the fluorescent probe KMG-20 synthesized in Example 1. Since the fluorescent probe KMG-20 has an acetoxymethyl group, it has a high lipid solubility and is easy to transfer from the culture medium to the cell membrane. In the vicinity of the cell membrane, the acetoxymethyl group is removed by an ester hydrolysis enzyme in the cell and becomes again a water-soluble compound having a carboxyl group, so that it is diffused into the cytoplasm. Upon forming a complex with a magnesium ion, the fluorescence of KMG-20 is increased.
A solution of the fluorescent probe KMG-20 in DMSO (1.0 ml) was added to Hanks-HEPES buffer so as to attain a final concentration of 10.0 μM, and the mixture was subjected to ultrasonication. The culture medium in which bovine vascular endothelial cells had been cultured at 37° C. on a petri dish was replaced with the above-described KMG-20 solution, and the cells were incubated at 37° C. for 30 minutes. […] The excitation wavelength was 440 nm and the detection wavelength was 500–530 nm. For comparison, the cells before the treatment with the fluorescence probe were also observed with the fluorescence microscope.
(§4) To clarify the behavior of free magnesium ions in the cells, 5 μM carbonylcyanoid p-(trifluoromethoxy)phenylhydrazone (FCCP) was added. As a result, the entire cell was brightened. The change in the fluorescence intensity with time after the addition of FCCP was observed. […] It is known that magnesium ion usually binds to an oxygen atom in the phosphoric acid ester moiety of a phosphorylated substrate such as ATP, ADP, phosphorylated saccharide, nucleic acid or the like to neutralize the electric charge thereof, and serves as an acid catalyst, and that enzymes whose corresponding substrates are phosphoric acid ester compounds require magnesium ion as a co-factor. Since FCCP serves as a respiration inhibitor of mitochondria in the cells, the ATP activity in the cells is decreased and so the free magnesium ion level is increased, it is thought that KMG-20 formed a complex with magnesium ion, thereby increasing the fluorescence intensity.
(§5) Further, 10 μM acetylcholine was added to the cells so as to compulsively increase the calcium level in the cells.

[5] = Binding constant to calcium ion by fluorescence titration (Benesi-Hildebrand plot); conditions: probe 10 μM in HEPES 10.0 mM, KCl 120.0 mM, NaCl 20.0 mM, EGTA 2.0 mM, pH 7.20; excitation 448 nm, fluorescence 505 nm
Protocol: as §1, §2, §3
The fluorescence intensities at the maximum fluorescence wavelength (505 nm) when the concentration of the metal ion was changed were measured, and the binding constants to Mg^2+ and Ca^2+ were calculated by using Benesi-Hildebrand plot method (J. Am. Chem. Soc. 71, 2703 (1949)). […]

[6] = tested on: PC-12 cells; experiment: Measurement of magnesium ions in cells using fluorescent probe (No. 2), fluorescence microscopy; format: cell-based, rat; conditions: for Change in fluorescence intensity after addition of FCCP: 5.0 μM FCCP (raises free magnesium ion level); for Staining / dispersion of the probe in cells: excitation 440 nm, detection 500–530 nm
Protocol: Behavior of magnesium ions in cells were measured using the fluorescent probe synthesized in Example 4.
Since this fluorescent probe KMG-20 has an acetoxymethyl group, it has a high lipid solubility and is easy to transfer from the culture medium to the cell membrane. In the vicinity of the cell membrane, the acetoxymethyl group is removed by an ester hydrolysis enzyme in the cell and becomes again a water-soluble compound having a carboxyl group, so that it is diffused into the cytoplasm.
A solution of the fluorescent probe in DMSO (1.0 ml) was added to Hanks-HEPES buffer so as to attain a final concentration of 10.0 μM, and the mixture was subjected to ultrasonication. The culture medium in which PC-12 cells (cloned nerve cells isolated from rat adrenal medulla chrome-philic cytoma) had been cultured at 37° C. on a petri dish was replaced with the fluorescent probe solution, and the cells were incubated at 37° C. for 30 minutes. […] The excitation wavelength was 440 nm and the detection wavelength was 500–530 nm. For comparison, the cells before the treatment with the fluorescence probe were also observed with the fluorescence microscope.
as §4, with “5.0” for “5”, “the fluorescent probe” for “KMG-20”
as §5

[7] = 10 μM acetylcholine (increases calcium level in the cells)
[8] = 10.0 μM probe, 37° C. 30 minutes, fluorescence microscope

Structure (SMILES)	KMg/KCa (selectivity to magnesium ion) [1]	KMg (binding constant to Mg^2+) [1] [M⁻¹]	KCa (binding constant to Ca^2+) [5] [M⁻¹]	KCa (binding constant to Ca^2+) [2]	KMg (binding constant to Mg^2+) [3] [M⁻¹]	other results
O=C([O-])COc1cc(NC(=O)c2ccc3c(c2)C(=O)OC32c3cc(Cl)c([O-])cc3Oc3cc([O-])c(Cl)cc32)ccc1N(CC(=O)[O-])CC(=O)[O-].[K+].[K+].[K+].[K+].[K+] [Magnesium Green]	0.003			166,660 M^−1	500.0	
CC(=O)OCOC(=O)c1cc2cc3c4c(c2oc1=O)CCCN4CCC3 [KMG-20, (13-aza-3-oxa-4-oxotetracyclo[7.7.1.0<2,7>.0<13,17>]heptadeca-1(17),2(7),5,8-tetraene-5-ylcarbonyloxy)methyl acetate]	3.0	100.0	33.3			Change in fluorescence intensity after addition of FCCP ([4]; 5 μM FCCP (raises free magnesium ion level)): fluorescence intensity was increased during 1 minute from the addition of FCCP; Change in fluorescence intensity after addition of acetylcholine [4, 7]: increase of the fluorescence intensity was not observed; Staining / dispersion of the probe in cells ([4]; 10.0 μM probe, 37° C. 30 minutes, excitation 440 nm, detection 500–530 nm): uniformly dispersed and stained the cells; also recorded: uniformly dispersed in the cytoplasm; Location of the probe in the cell [4, 8]: located in the vicinity of the nucleus
COC(=O)c1cc2cc3c4c(c2oc1=O)C(C)(C)CCN4CCC3(C)C [KMG-27, methyl-13-aza-10,10,16,16-tetramethyl-3-oxa-4-oxo-tetracyclo[7,7,1,0<2,7>.O<13,17>]heptadeca-1(17),2(7),5,8-tetraene-5-carboxylate]	3.09	102.0	33.0			Change in fluorescence intensity after addition of FCCP [6]: increase in the fluorescent intensity was observed; Change in fluorescence intensity after addition of FCCP ([6]; listed as Example 4): fluorescence intensity was increased during 1 minute from the addition of FCCP; Change in fluorescence intensity after addition of acetylcholine [6, 7]: increase of the fluorescence intensity was not observed; Staining / dispersion of the probe in cells ([6]; 10.0 μM probe, 37° C. 30 minutes): uniformly dispersed in the cells; Staining / dispersion of the probe in cells ([6]; 10.0 μM probe, 37° C. 30 minutes, listed as Example 4): uniformly dispersed and stained the cells; Location of the probe in the cell [6, 8]: located in the vicinity of the nucleus

Now from value to molecule, other results behind:

KMg/KCa (selectivity to magnesium ion) [1]	KMg (binding constant to Mg^2+) [1] [M⁻¹]	KCa (binding constant to Ca^2+) [5] [M⁻¹]	Structure (SMILES)	KCa (binding constant to Ca^2+) [2]	KMg (binding constant to Mg^2+) [3] [M⁻¹]	other results
0.013			O=C(O)COc1cc(-c2cc3ccc(C(=O)O)cc3[nH]2)ccc1N(CC(=O)O)CC(=O)O [mag-indo-1]	28,570 M^−1	370.4	
0.013			O=C(O)COc1cc2cc(-c3ncc(C(=O)O)o3)oc2cc1N(CC(=O)O)CC(=O)O [mag-fura-2]	40,000 M^−1	526.3	
